Counter-ions that a name gives are not always drawn.
melting point [°C] | SMILES
166 to 184 | Cc1ncccc1-c1ccc2c(c1F)-n1cccc1C(=O)N(C)C21CC1 (as salt: hydrochloride) [Example 75, 10-Fluoro-5-methyl-9-(2-methyl-pyridin-3-yl)-spiro[benzo[f]pyrrolo[1,2-a][1,4]diazepine-6,1′-cyclopropan]-4(5H)-one]
200 to 210 | Cc1ncccc1-c1cc2c(cc1F)C1(CC1)N(C)C(=O)c1cccn1-2 (as salt: hydrochloride) [Example 77, 8-Fluoro-5-methyl-9-(2-methyl-pyridin-3-yl)-spiro[benzo[f]pyrrolo[1,2-a][1,4]diazepine-6,1′-cyclopropan]-4(5H)-one]
150 to 158 | Cc1ncccc1-c1ccc2c(c1)-n1c(F)ccc1C(=O)N(C)C21CC1 (as salt: hydrochloride) [Example 81, 9-(2-Methyl-pyridin-3-yl)-1-fluoro-5-methyl-spiro[benzo[f]pyrrolo[1,2-a][1,4]diazepine-6,1′-cyclopropan]-4(5H)-one]
250 | Cc1ncccc1-c1cccc2c1-n1cccc1C(=O)N(C)C21CC1 (as salt: hydrochloride) [Example 92, 10-(2-Methyl-pyridin-3-yl)-5-methyl-spiro[benzo[f]pyrrolo[1,2-a][1,4]diazepine-6,1′-cyclopropan]-4(5H)-one]
218 to 222 | CN1C(=O)c2cc(-c3ccccc3)cn2-c2cc(-c3cccnc3)ccc2C12CC2 (as salt: hydrochloride) [Example 93, 5-Methyl-2-phenyl-9-pyridin-3-yl-spiro[benzo[f]pyrrolo[1,2-a][1,4]diazepine-6,1′-cyclopropan]-4(5H)-one]
174 to 180 | Cc1ncccc1-c1ccc2c(c1)-n1cc(-c3ccccc3)cc1C(=O)N(C)C21CC1 (as salt: hydrochloride) [Example 95, 5-Methyl-2-phenyl-9-(2-methyl-pyridin-3-yl)-spiro[benzo[f]pyrrolo[1,2-a][1,4]diazepine-6,1′-cyclopropan]-4(5H)-one]
> 250 | CN1C(=O)c2cc(-c3ccccc3)cn2-c2cc(-c3ccc(N)nc3)ccc2C12CC2 (as salt: hydrochloride) [Example 96, 5-Methyl-2-phenyl-9-(6-amino-pyridin-3-yl)-spiro[benzo[f]pyrrolo[1,2-a][1,4]diazepine-6,1′-cyclopropan]-4(5H)-one]
227 to 234 | Cc1cc(-c2ccc3c(c2)-n2cc(-c4ccccc4)cc2C(=O)N(C)C32CC2)cc(C)n1 (as salt: hydrochloride) [Example 97, 5-Methyl-2-phenyl-9-(2,6-dimethyl-pyridin-4-yl)-spiro[benzo[f]pyrrolo[1,2-a][1,4]diazepine-6,1′-cyclopropan]-4(5H)-one]
212 to 220 | Cc1cncc(-c2ccc3c(c2)-n2cc(-c4ccccc4)cc2C(=O)N(C)C32CC2)c1 (as salt: hydrochloride) [Example 98, 5-Methyl-2-phenyl-9-(5-methyl-pyridin-3-yl)-spiro[benzo[f]pyrrolo[1,2-a][1,4]diazepine-6,1′-cyclopropan]-4(5H)-one]
179 to 183 | CCc1ncccc1-c1ccc2c(c1)-n1cc(-c3ccccc3)cc1C(=O)N(C)C21CC1 (as salt: hydrochloride) [Example 99, 5-Methyl-2-phenyl-9-(2-ethyl-pyridin-3-yl)-spiro[benzo[f]pyrrolo[1,2-a][1,4]diazepine-6,1′-cyclopropan]-4(5H)-one]
205 to 217 | Cc1ccncc1-c1ccc2c(c1)-n1cc(-c3ccccc3)cc1C(=O)N(C)C21CC1 (as salt: hydrochloride) [Example 101, 5-Methyl-2-phenyl-9-(4-methyl-pyridin-3-yl)-spiro[benzo[f]pyrrolo[1,2-a][1,4]diazepine-6,1′-cyclopropan]-4(5H)-one]
220 to 230 | CN1C(=O)c2cc(-c3ccccc3)cn2-c2cc(-c3ccncc3)ccc2C12CC2 (as salt: hydrochloride) [Example 102, 5-Methyl-2-phenyl-9-(pyridin-4-yl)-spiro[benzo[f]pyrrolo[1,2-a][1,4]diazepine-6,1′-cyclopropan]-4(5H)-one]
200 to 215 | Cc1ccc(-c2ccc3c(c2)-n2cc(-c4ccccc4)cc2C(=O)N(C)C32CC2)cn1 (as salt: hydrochloride) [Example 103, 5-Methyl-2-phenyl-9-(6-methyl-pyridin-3-yl)-spiro[benzo[f]pyrrolo[1,2-a][1,4]diazepine-6,1′-cyclopropan]-4(5H)-one]
168 to 173 | CN1C(=O)c2cc(-c3ccccc3)cn2-c2cc(-c3cncnc3)ccc2C12CC2 (as salt: hydrochloride) [Example 104, 5-Methyl-2-phenyl-9-(pyrimidin-5-yl)-spiro[benzo[f]pyrrolo[1,2-a][1,4]diazepine-6,1′-cyclopropan]-4(5H)-one]
225 to 235 | Cc1cc(-c2ccc3c(c2)-n2cc(-c4ccccc4)cc2C(=O)N(C)C32CC2)ccn1 (as salt: hydrochloride) [Example 105, 5-Methyl-2-phenyl-9-(2-methyl-pyridin-4-yl)-spiro[benzo[f]pyrrolo[1,2-a][1,4]diazepine-6,1′-cyclopropan]-4(5H)-one]
206 to 214 | Cc1ccc(-c2ccc3c(c2)-n2cc(-c4ccccc4)cc2C(=O)N(C)C32CC2)c(C)n1 (as salt: hydrochloride) [Example 107, 5-Methyl-2-phenyl-9-(2,6-dimethyl-pyridin-3-yl)-spiro[benzo[f]pyrrolo[1,2-a][1,4]diazepine-6,1′-cyclopropan]-4(5H)-one]
185 to 198 | CN1C(=O)c2cc(-c3ccccc3)cn2-c2cc(-c3ccccn3)ccc2C12CC2 (as salt: hydrochloride) [Example 111, 5-Methyl-2-phenyl-9-(pyridin-2-yl)-spiro[benzo[f]pyrrolo[1,2-a][1,4]diazepine-6,1′-cyclopropan]-4(5H)-one]
209 to 212 | CCc1ccc(-c2ccc3c(c2)-n2cc(-c4ccccc4)cc2C(=O)N(C)C32CC2)cn1 (as salt: hydrochloride) [Example 112, 5-methyl-2-phenyl-9-(6-ethylpyridin-3-yl)-spiro[benzo[f]pyrrolo[1,2-a][1,4]diazepine-6,1′-cyclopropan]-4(5H)-one]
200 to 208 | CN(C)c1ccc(-c2ccc3c(c2)-n2cc(-c4ccccc4)cc2C(=O)N(C)C32CC2)cn1 (as salt: hydrochloride) [Example 114, 5-Methyl-2-phenyl-9-(6-dimethylamino-pyridin-3-yl)-spiro[benzo[f]pyrrolo[1,2-a][1,4]diazepine-6,1′-cyclopropan]-4(5H)-one]
160 to 170 | CN(C)c1ccc2c(c1)-n1cc(-c3ccccc3)cc1C(=O)N(C)C21CC1 (as salt: hydrochloride) [Example 115, 9-Dimethylamino-5-methyl-2-phenyl-spiro[benzo[f]pyrrolo[1,2-a][1,4]diazepine-6,1′-cyclopropan]-4(5H)-one]
> 250 | CNc1ccc(-c2ccc3c(c2)-n2cc(-c4ccccc4)cc2C(=O)N(C)C32CC2)cn1 (as salt: hydrochloride) [Example 118, 5-Methyl-2-phenyl-9-(6-methylamino-pyridin-3-yl)-spiro[benzo[f]pyrrolo[1,2-a][1,4]diazepine-6,1′-cyclopropan]-4(5H)-one]
209 to 213 | CN(C)c1ncccc1-c1ccc2c(c1)-n1cc(-c3ccccc3)cc1C(=O)N(C)C21CC1 (as salt: hydrochloride) [Example 119, 5-Methyl-2-phenyl-9-(2-dimethylamino-pyridin-3-yl)-spiro[benzo[f]pyrrolo[1,2-a][1,4]diazepine-6,1′-cyclopropan]-4(5H)-one]
> 250 | Cc1cc(-c2ccc3c(c2)-n2nc(-c4ccccc4)cc2C(=O)N(C)C32CC2)cc(C)n1 (as salt: hydrochloride) [Example 121, 9-(2,6-Dimethyl-pyridin-4-yl)-5-methyl-2-phenyl-spiro[benzo[f]pyrazolo[1,5-a][1,4]diazepine-6,1′-cyclopropan]-4(5H)-one]
> 250 | Cc1cc(-c2ccc3c(c2)-n2nc(-c4ccccc4)cc2C(=O)N(C)C32CC2)ccn1 (as salt: hydrochloride) [Example 122, 9-(2-Methyl-pyridin-4-yl)-5-methyl-2-phenyl-spiro[benzo[f]pyrazolo[1,5-a][1,4]diazepine-6,1′-cyclopropan]-4(5H)-one]
185 to 206 | Cc1ncccc1-c1ccc2c(c1)-n1nc(-c3ccccc3)cc1C(=O)N(C)C21CC1 (as salt: hydrochloride) [Example 125, 9-(2-Methyl-pyridin-3-yl)-5-methyl-2-phenyl-spiro[benzo[f]pyrazolo[1,5-a][1,4]diazepine-6,1′-cyclopropan]-4(5H)-one]
> 250 | Cc1ccc(-c2ccc3c(c2)-n2nc(-c4ccccc4)cc2C(=O)N(C)C32CC2)c(C)n1 (as salt: hydrochloride) [Example 126, 9-(2,6-Dimethyl-pyridin-3-yl)-5-methyl-2-phenyl-spiro[benzo[f]pyrazolo[1,5-a][1,4]diazepine-6,1′-cyclopropan]-4(5H)-one]
> 250 | CN1C(=O)c2cc(-c3ccccc3)nn2-c2cc(-c3ccc(N)nc3)ccc2C12CC2 (as salt: hydrochloride) [Example 127, 9-(6-Amino-pyridin-3-yl)-5-methyl-2-phenyl-spiro[benzo[f]pyrazolo[1,5-a][1,4]diazepine-6,1′-cyclopropan]-4(5H)-one]
235 to 240 | Cc1ncccc1-c1ccc2c(c1)-n1cc(-c3ccccc3)nc1C(=O)N(C)C21CC1 (as salt: hydrochloride) [Example 140, 9-(2-Methyl-pyridin-3-yl)-5-methyl-2-phenyl-spiro[benzo[f]imidazo[1,2-a][1,4]diazepine-6,1′-cyclopropan]-4(5H)-one]
> 250 | Cc1ncccc1-c1ccc2c(c1)-n1cc(-c3cccnc3)cc1C(=O)N(C)C21CC1 (as salt: hydrochloride) [Example 143]
162 to 175 | Cc1cc2n(c1)-c1cc(-c3cccnc3C)ccc1C1(CC1)N(C)C2=O (as salt: hydrochloride) [Example 144]

Reference: patent publication US11008323B2, “Substituted tricyclic 1,4-benzodiazepinone derivatives as allosteric modulators of group II metabotropic glutamate receptors” (Domain Therapeutics, priority 2015, dated 2021)
